Holding throughout (type): cell-based
Experiment [1] has as its system U266-LR7, lymphoblast (myeloma), selected for resistance to Melphalan. As to the method: U266-LR7, lymphoblast (myeloma), selected for resistance to Melphalan (Alvarez-Fernández et al. Clin Cancer Res. 2013 May 15; 19(10):2677-87).
(§1) All cell lines were cultured in incubator at 37° C. in RPMI-1640 (Sigma R8758) medium with 10% of fetal bovine serum inactivated (FBS) and 2 mM glutamine (Sigma G7513). During the amplification step cells were centrifuged and transferred into the culturing medium. Cells were counted in a Neubauer chamber after labelling with Tripan-Blue.
(§2) Cells were seeded at a density of 10000 cells/well in 100 μl of medium in 96 well plates. After 24 h, the compounds to be tested were added to calculate the dose/response curve at the starting concentration of 100 μM with serial dilutions (1:1). Controls are the untreated cells. Each experiment was performed in triplicate.
(§3) Cells were incubated with the peptidomimetic compound (S09) at the indicated concentrations during 24-72 h in incubator under CO2 atmosphere at 37° C. Then, cell viability was measured by means of MTT (3-(4,5-dimethylthiazol-2-yl)-2,5-diphenyltetrazolium bromide) assay. Stock solution of MTT (475989 Calbiochem) was 5 mg/ml in PBS. 1×.10 μl/well of MTT solution were added and the plate was incubated for 3-4 hr. The medium was discarded and 100 μl of extracting buffer (PBS 1×, 15% SDS, 50% […] N,N-Dimethylformamide, pH 4.7) were added to each well. Plates were incubated for 16 h at room temperature under orbital shaking. Absorbance at 570 nm was finally measured. As negative control (experiment noise) 3 wells were treated with 20 μl/well of a solution of SDS 10% in H2O.
Data analysis was performed calculating the percentage of cell viability normalized vs. the values of negative control, which was considered equal to 100%. The dose/response curve was fitted through the sigmoidal equation dose-response (variable slope) and the IC50 values were calculated as follow:
Y=Bottom+(Top−Bottom)/(1+10^{[(LogIC50−X)*HillSlope]},
U266-LR7, lymphoblast (myeloma), selected for resistance to Melphalan (Alvarez-Fernandez et al. Clin Cancer Res. 2013 May 15; 19(10):2677-87).
All cell lines were cultured in incubator at 37° C. in RPMI-1640 (Sigma R8758) medium with 10% of fetal bovine serum inactivated (FBS) and 2 mM glutamine (Sigma G7513).
Cells were seeded at a density of 10,000 cells/well in 100 μl of medium in 96 well plates. After 24 h, the compounds to be tested were added to calculate the dose/response curve at the starting concentration of 40 μM with serial dilutions (1:1). Controls are the untreated cells. Each experiment was performed in triplicate.
as §3, with “compounds” for “compound (S09)”

For experiment [2], the system named is OPM-2, lymphoblast (myeloma). As to the kind of experiment: MTT viability assay, OPM-2. Conditions: OPM2, 24-72 h, Table 7, read-out: IC50 values in μM for S09. Here is the method:
OPM-2, lymphoblast (myeloma), DSMZ No. ACC50
as §1, §2
(§4) Cells were incubated with the peptidomimetic compound (S09) at the indicated concentrations during 24-72 h in incubator under CO2 atmosphere at 37° C. Then, cell viability was measured by means of MTT (3-(4,5-dimethylthiazol-2-yl)-2,5-diphenyltetrazolium bromide) assay. Stock solution of MTT (475989 Calbiochem) was 5 mg/ml in PBS. […] Absorbance at 570 nm was finally measured. […]
(§5) Data analysis was performed calculating the percentage of cell viability normalized vs. the values of negative control, which was considered equal to 100%. The dose/response curve was fitted through the sigmoidal equation dose-response (variable slope) and the IC50 values were calculated as follow: […]

Experiment [3] deals with BJ, fibroblast (normal skin). As to the kind of experiment: MTT viability assay, BJ. Conditions: incubation 24-72 h, Table 3. As to the method:
BJ, fibroblast (normal skin), ATCC® CRL-2522™
Cell lines A549, MCF-7 and RAMOS were cultured in incubator under CO2 (6%) at 37° C. in DMEM high glucose (Dulbecco's Modified Eagle Solution, Gibco-BRL 31966-21) medium with 10% fetal bovine serum inactivated (FBS) (Gibco-BRL 10106-169). Cell lines HL-60 and MM.1S were cultured in incubator at 37° C. in RPMI-1640 (Sigma R8758) medium with 10% of fetal bovine serum inactivated (FBS) and 2 mM glutamine (Sigma G7513). Cell lines BJ were cultured in incubator under CO2 (6%) at 37° C. in Eagle's Minimum Essential Medium (Sigma, M-2279) with 10% fetal bovine serum inactivated (FBS) (Gibco-BRL 10106-169).
During the amplification step and the assays adherent cells were rinsed with DPBS (Dulbecco's Phosphate Buffered Saline, Sigma D1283) three times and afterward treated for 5 minutes with trypsin ([…]) (Gibco-BRL, 15400054) in solution of DPBS at 37° C., and, once detached, transferred in the culturing medium. […] Cells were counted in a Neubauer chamber after labelling with Tripan-Blue. […]
Cells were incubated with the compounds at the indicated concentrations during 24-72 h in incubator under CO2 atmosphere at 37° C. Then, cell viability was measured by means of MTT (3-(4,5-dimethylthiazol-2-yl)-2,5-diphenyltetrazolium bromide) assay. […] Absorbance at 570 nm was finally measured. […]

The test system of experiment [4] is U266, lymphoblast (myeloma). The experiment can be described thus: MTT viability assay, U266. The conditions noted are these: 24-72 h, Table 7, read-out: IC50 values in μM for S09. As to the method: U266, lymphoblast (myeloma), ATCC® TIB196™
as §1, §2, §4, §5

The test system of experiment [5] is NCI-H929, lymphoblast (myeloma). As to the kind of experiment: MTT viability assay, NCI-H929. The conditions noted are these: 24-72 h, Table 7, read-out: IC50 values in μM for S09. Here is the method: NCI-H929, lymphoblast (myeloma), ATCC® CRL-9068™
as §1, §2, §4, §5

In experiment [6] the test system is MM144, lymphoblast (myeloma). The experiment can be described thus: MTT viability assay, MM144. The conditions noted are these: 24-72 h, Table 7, read-out: IC50 values in μM for S09. Here is the method: MM144, lymphoblast (myeloma), University of Salamanca
as §1, §2, §4, §5

[7] abbreviates: U266LR7, 24 hr, Table 13, read-out: IC50 after 24 hr values.
Where [8] appears, read: U266LR7, 72 hr, Table 14, read-out: IC50 after 72 hr values.

Read-outs that look alike come from different tables or passages of the source. Starred links: 1 amine or outer side, 2 acyl side, 3 side chain; linkers in the order of their positions; H or OH if unused. Positions of bridges follow the written chain, without caps; N, C: chain ends. Non-standard residues stand in square brackets, D forms with d. Residues, ends and D or L forms follow the SMILES beside them. ξ: configuration not given here. ξαMeNle(6-ylidene) = CC(CCCC=[*:3])(N[*:1])C(=O)[*:2]; X1 = CC(CCCCCCC=[*:3])(N[*:1])C(=O)[*:2]; Octanediyl(1,8) = C(CCCC[*:2])CCC[*:1]; ξC = NC(CS)C(=O)O

On to `CC[C@H](C)[C@H](NC(=O)[C@H](Cc1ccc(O)cc1)NC(=O)[C@H](C)NC(=O)C1CSCCCCCCCCSCC(NC(=O)[C@H](CCCCN)NC(=O)[C@@H]2CCCN2C(=O)[C@H](C)N)C(=O)N[C@@H](C(C)C)C(=O)N[C@@H]([C@@H](C)CC)C(=O)N[C@@H](CC(C)C)C(=O)N[C@@H](CCCCN)C(=O)N[C@@H](CCCCN)C(=O)N[C@@H](C)C(=O)N1)C(=O)N[C@@H](CC(C)C)C(=O)N[C@@H](CO)C(=O)O` (stereo partly shown) [IDP-P1708160] (H-APK[ξC]VILKKA[ξC]AYILS-OH; linker 4-11 via Octanediyl(1,8); N-terminus and C-terminus assumed), for which the IC50 in experiment [1] (setting [7]) and in experiment [1] (setting [8]) was 2.5 µM in each case.
Turning to `CC[C@H](C)[C@H](NC(=O)[C@H](Cc1ccc(O)cc1)NC(=O)[C@H](C)NC(=O)C1(C)CCCC=CCCCCCCC(C)(NC(=O)[C@H](CCCCN)NC(=O)[C@@H]2CCCN2C(=O)[C@H](C)N)C(=O)N[C@@H](C(C)C)C(=O)N[C@@H]([C@@H](C)CC)C(=O)N[C@@H](CC(C)C)C(=O)N[C@@H](CCCCN)C(=O)N[C@@H](CCCCN)C(=O)N[C@@H](C)C(=O)N1)C(=O)N[C@@H](CC(C)C)C(=O)N[C@@H](CO)C(=O)O` (stereo partly shown) [S09, APKXVILKKAXAYILS—OH] (H-APK[X1]VILKKA[ξαMeNle(6-ylidene)]AYILS-OH; staple 4-11; N-terminus assumed), the IC50 came to 4.8 µM in experiment [2]; 47 ± 0.2 µM in experiment [3]; 7.5 µM in experiment [4]; 9.7 µM in experiment [1] (U266LR7 (resistant to Melphalan), MTT, 24-72 h, Table 7, read-out: IC50 values in μM for S09); 3.6 µM in experiment [5]; 6.8 µM in experiment [6].
For the compound `CC[C@H](C)[C@H](NC(=O)[C@H](Cc1ccc(O)cc1)NC(=O)[C@H](C)NC(=O)C1(C)CCCC=CCCCCCCC(C)(NC(=O)[C@H](CCCCN)NC(=O)[C@@H]2CCCN2C(=O)[C@H](C)N)C(=O)N[C@@H](C(C)C)C(=O)N[C@@H]([C@@H](C)CC)C(=O)N[C@@H](Cc2ccccc2)C(=O)N[C@@H](CCCCN)C(=O)N[C@@H](CCCCN)C(=O)N[C@@H](C)C(=O)N1)C(=O)N[C@@H](CC(C)C)C(=O)N[C@@H](CO)C(=O)O` (stereo partly shown) [S14, APKXVIFKKAXAYILS—OH] (H-APK[X1]VIFKKA[ξαMeNle(6-ylidene)]AYILS-OH; staple 4-11; N-terminus assumed), the IC50 in experiment [1] (setting [7]) and in experiment [1] (setting [8]) was 10 µM in each case.

The values above are taken from patent US20200261534A1, “NEW TREATMENTS OF MULTIPLE MYELOMA” (priority 2017, published 2020).
